{"source": "PubChem BioAssay AID2060512", "about": "(Molecular Pharmacology Branch, DTP, NCI, 2025);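 note: spheroids exposed to drugs for 7 days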;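 for viability, T/C: 100% = DMSO vehicle control viability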", "test_system": "186277-243-T-J2-PDC complex spheroid viability", "assay": "Anticancer human tumor 186277-243-T-J2-PDC patient-derived colon adenocarcinoma cell line growth inhibition [GQUAD]", "conditions": "for IC50: curve of first compound; for viability, T/C: stronger effect = lower value", "in_short": "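Multi-cell-type spheroids of tumor cells with HUVEC and mesenchymal stem cells, treated with drug combinations. Concentrations descend in half-log steps from near clinical Cmax, or from 10 microM where Cmax is unknown; viability read-out.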", "key": {"[1]": {"conditions": "second compound 0.0316 µM, first compound 0.0316 µM"}, "[2]": {"conditions": "second compound 0.0316 µM, first compound 0.316 µM"}, "[3]": {"conditions": "second compound 0.1 µM, first compound 0.0316 µM"}, "[4]": {"conditions": "second compound 0.1 µM, first compound 0.316 µM"}, "[5]": {"conditions": "second compound 0.316 µM, first compound 0.0316 µM"}, "[6]": {"conditions": "second compound 0.316 µM, first compound 0.316 µM"}, "[7]": {"conditions": "second compound 1 µM, first compound 0.0316 µM"}, "[8]": {"conditions": "second compound 1 µM, first compound 0.316 µM"}, "[9]": {"conditions": "second compound 3.16 µM, first compound 0.0316 µM"}, "[10]": {"conditions": "second compound 3.16 µM, first compound 0.316 µM"}, "[11]": {"conditions": "second compound 10 µM, first compound 0.0316 µM"}, "[12]": {"conditions": "second compound 10 µM, first compound 0.316 µM"}}}
{"smiles": "CC[C@@]1(O)C(=O)OCc2c1cc1n(c2=O)Cc2cc3c(CN(C)C)c(O)ccc3nc2-1", "note": "+ CN(C)c1ccc(Nc2c3ccc(NC(=O)CCN4CCCC4)cc3nc3cc(NC(=O)CCN4CCCC4)ccc23)cc1", "values": [{"measurement": "IC50", "setting": "second compound 0.0316 µM", "result": "> 316", "unit": "nM"}, {"measurement": "IC50", "setting": "second compound 0.1 µM", "result": 153, "unit": "nM"}, {"measurement": "IC50", "setting": "second compound 0.316 µM", "result": 178, "unit": "nM"}, {"measurement": "IC50", "setting": "second compound 1 µM", "result": 206, "unit": "nM"}, {"measurement": "IC50", "setting": "second compound 3.16 µM", "result": 209, "unit": "nM"}, {"measurement": "IC50", "setting": "second compound 10 µM", "result": 252, "unit": "nM"}, {"measurement": "viability, T/C", "setting": "second compound 0.0316 µM, first compound 0.000999 µM", "result": 91.1, "unit": "%"}, {"measurement": "viability, T/C", "setting": "second compound 0.0316 µM, first compound 0.00316 µM", "result": 115, "unit": "%"}, {"measurement": "viability, T/C", "setting": "second compound 0.0316 µM, first compound 0.00999 µM", "result": 99.2, "unit": "%"}, {"measurement": "viability, T/C", "setting": "[1]", "result": 88.3, "unit": "%"}, {"measurement": "viability, T/C", "setting": "second compound 0.0316 µM, first compound 0.0999 µM", "result": 54.4, "unit": "%"}, {"measurement": "viability, T/C", "setting": "[2]", "result": 50.1, "unit": "%"}, {"measurement": "viability, T/C", "setting": "second compound 0.1 µM, first compound 0.000999 µM", "result": 91.5, "unit": "%"}, {"measurement": "viability, T/C", "setting": "second compound 0.1 µM, first compound 0.00316 µM", "result": 104, "unit": "%"}, {"measurement": "viability, T/C", "setting": "second compound 0.1 µM, first compound 0.00999 µM", "result": 92.5, "unit": "%"}, {"measurement": "viability, T/C", "setting": "[3]", "result": 70.9, "unit": "%"}, {"measurement": "viability, T/C", "setting": "second compound 0.1 µM, first compound 0.0999 µM", "result": 61.1, "unit": "%"}, {"measurement": "viability, T/C", "setting": "[4]", "result": 36.9, "unit": "%"}, {"measurement": "viability, T/C", "setting": "second compound 0.316 µM, first compound 0.000999 µM", "result": 93.9, "unit": "%"}, {"measurement": "viability, T/C", "setting": "second compound 0.316 µM, first compound 0.00316 µM", "result": 102, "unit": "%"}, {"measurement": "viability, T/C", "setting": "second compound 0.316 µM, first compound 0.00999 µM", "result": 95.6, "unit": "%"}, {"measurement": "viability, T/C", "setting": "[5]", "result": 81.4, "unit": "%"}, {"measurement": "viability, T/C", "setting": "second compound 0.316 µM, first compound 0.0999 µM", "result": 59.4, "unit": "%"}, {"measurement": "viability, T/C", "setting": "[6]", "result": 41.2, "unit": "%"}, {"measurement": "viability, T/C", "setting": "second compound 1 µM, first compound 0.000999 µM", "result": 86.5, "unit": "%"}, {"measurement": "viability, T/C", "setting": "second compound 1 µM, first compound 0.00316 µM", "result": 81.7, "unit": "%"}, {"measurement": "viability, T/C", "setting": "second compound 1 µM, first compound 0.00999 µM", "result": 87.1, "unit": "%"}, {"measurement": "viability, T/C", "setting": "[7]", "result": 72, "unit": "%"}, {"measurement": "viability, T/C", "setting": "second compound 1 µM, first compound 0.0999 µM", "result": 65.6, "unit": "%"}, {"measurement": "viability, T/C", "setting": "[8]", "result": 41.2, "unit": "%"}, {"measurement": "viability, T/C", "setting": "second compound 3.16 µM, first compound 0.000999 µM", "result": 96.8, "unit": "%"}, {"measurement": "viability, T/C", "setting": "second compound 3.16 µM, first compound 0.00316 µM", "result": 99.5, "unit": "%"}, {"measurement": "viability, T/C", "setting": "second compound 3.16 µM, first compound 0.00999 µM", "result": 105, "unit": "%"}, {"measurement": "viability, T/C", "setting": "[9]", "result": 74.4, "unit": "%"}, {"measurement": "viability, T/C", "setting": "second compound 3.16 µM, first compound 0.0999 µM", "result": 65.2, "unit": "%"}, {"measurement": "viability, T/C", "setting": "[10]", "result": 42.5, "unit": "%"}, {"measurement": "viability, T/C", "setting": "second compound 10 µM, first compound 0.000999 µM", "result": 93.8, "unit": "%"}, {"measurement": "viability, T/C", "setting": "second compound 10 µM, first compound 0.00316 µM", "result": 85.7, "unit": "%"}, {"measurement": "viability, T/C", "setting": "second compound 10 µM, first compound 0.00999 µM", "result": 98, "unit": "%"}, {"measurement": "viability, T/C", "setting": "[11]", "result": 85.1, "unit": "%"}, {"measurement": "viability, T/C", "setting": "second compound 10 µM, first compound 0.0999 µM", "result": 58.3, "unit": "%"}, {"measurement": "viability, T/C", "setting": "[12]", "result": 47.9, "unit": "%"}]}
{"smiles": "Cc1cccc(N(C)C(=O)C2C(O)CCN2c2nc(C)cc(C(F)(F)F)c2C#N)c1", "note": "(centres undefined) + CN(C)c1ccc(Nc2c3ccc(NC(=O)CCN4CCCC4)cc3nc3cc(NC(=O)CCN4CCCC4)ccc23)cc1", "values": [{"measurement": "IC50", "setting": "second compound 0.0316 µM", "result": "> 10000", "unit": "nM"}, {"measurement": "IC50", "setting": "second compound 0.1 µM", "result": "> 10000", "unit": "nM"}, {"measurement": "IC50", "setting": "second compound 0.316 µM", "result": "> 10000", "unit": "nM"}, {"measurement": "IC50", "setting": "second compound 1 µM", "result": "> 10000", "unit": "nM"}, {"measurement": "IC50", "setting": "second compound 3.16 µM", "result": "> 10000", "unit": "nM"}, {"measurement": "IC50", "setting": "second compound 10 µM", "result": "> 10000", "unit": "nM"}, {"measurement": "viability, T/C", "setting": "[1]", "result": 88.8, "unit": "%"}, {"measurement": "viability, T/C", "setting": "second compound 0.0316 µM, first compound 0.1 µM", "result": 99.5, "unit": "%"}, {"measurement": "viability, T/C", "setting": "[2]", "result": 115, "unit": "%"}, {"measurement": "viability, T/C", "setting": "second compound 0.0316 µM, first compound 1 µM", "result": 109, "unit": "%"}, {"measurement": "viability, T/C", "setting": "second compound 0.0316 µM, first compound 3.16 µM", "result": 105, "unit": "%"}, {"measurement": "viability, T/C", "setting": "second compound 0.0316 µM, first compound 10 µM", "result": 100, "unit": "%"}, {"measurement": "viability, T/C", "setting": "[3]", "result": 94.1, "unit": "%"}, {"measurement": "viability, T/C", "setting": "second compound 0.1 µM, first compound 0.1 µM", "result": 105, "unit": "%"}, {"measurement": "viability, T/C", "setting": "[4]", "result": 94.9, "unit": "%"}, {"measurement": "viability, T/C", "setting": "second compound 0.1 µM, first compound 1 µM", "result": 91.8, "unit": "%"}, {"measurement": "viability, T/C", "setting": "second compound 0.1 µM, first compound 3.16 µM", "result": 108, "unit": "%"}, {"measurement": "viability, T/C", "setting": "second compound 0.1 µM, first compound 10 µM", "result": 88.7, "unit": "%"}, {"measurement": "viability, T/C", "setting": "[5]", "result": 81, "unit": "%"}, {"measurement": "viability, T/C", "setting": "second compound 0.316 µM, first compound 0.1 µM", "result": 107, "unit": "%"}, {"measurement": "viability, T/C", "setting": "[6]", "result": 98.9, "unit": "%"}, {"measurement": "viability, T/C", "setting": "second compound 0.316 µM, first compound 1 µM", "result": 97.6, "unit": "%"}, {"measurement": "viability, T/C", "setting": "second compound 0.316 µM, first compound 3.16 µM", "result": 102, "unit": "%"}, {"measurement": "viability, T/C", "setting": "second compound 0.316 µM, first compound 10 µM", "result": 104, "unit": "%"}, {"measurement": "viability, T/C", "setting": "[7]", "result": 97.1, "unit": "%"}, {"measurement": "viability, T/C", "setting": "second compound 1 µM, first compound 0.1 µM", "result": 93.2, "unit": "%"}, {"measurement": "viability, T/C", "setting": "[8]", "result": 98.9, "unit": "%"}, {"measurement": "viability, T/C", "setting": "second compound 1 µM, first compound 1 µM", "result": 101, "unit": "%"}, {"measurement": "viability, T/C", "setting": "second compound 1 µM, first compound 3.16 µM", "result": 102, "unit": "%"}, {"measurement": "viability, T/C", "setting": "second compound 1 µM, first compound 10 µM", "result": 114, "unit": "%"}, {"measurement": "viability, T/C", "setting": "[9]", "result": 86.4, "unit": "%"}, {"measurement": "viability, T/C", "setting": "second compound 3.16 µM, first compound 0.1 µM", "result": 91.7, "unit": "%"}, {"measurement": "viability, T/C", "setting": "[10]", "result": 106, "unit": "%"}, {"measurement": "viability, T/C", "setting": "second compound 3.16 µM, first compound 1 µM", "result": 118, "unit": "%"}, {"measurement": "viability, T/C", "setting": "second compound 3.16 µM, first compound 3.16 µM", "result": 83, "unit": "%"}, {"measurement": "viability, T/C", "setting": "second compound 3.16 µM, first compound 10 µM", "result": 110, "unit": "%"}, {"measurement": "viability, T/C", "setting": "[11]", "result": 88.6, "unit": "%"}, {"measurement": "viability, T/C", "setting": "second compound 10 µM, first compound 0.1 µM", "result": 104, "unit": "%"}, {"measurement": "viability, T/C", "setting": "[12]", "result": 93.7, "unit": "%"}, {"measurement": "viability, T/C", "setting": "second compound 10 µM, first compound 1 µM", "result": 120, "unit": "%"}, {"measurement": "viability, T/C", "setting": "second compound 10 µM, first compound 3.16 µM", "result": 98.2, "unit": "%"}, {"measurement": "viability, T/C", "setting": "second compound 10 µM, first compound 10 µM", "result": 75.6, "unit": "%"}]}
